According to patent publication US5614533A, “Substituted pipecolinic acid derivatives as HIV protease inhibitors” (Bio-Mega/Boehringer Ingelheim Research, Inc., priority 1994, dated 1997):

Key:
HIV protease = biological target: T1, HIV protease (Human immunodeficiency virus type 1 group M subtype B, UniProt P04585); test: Recombinant HIV Protease HPLC Assay; type: biochemical; conditions: 37°, 30 min, pH 5.5
T1 construct: HIV protease was expressed in E. coli; made in house; host or cells: E. coli (plasmid pBRT1 prt+)
From the text: The procedure is based on the capacity of the test compound to inhibit enzymatic cleavage by HIV protease of a decapeptide (the substrate) having an amino acid sequence which includes a known HIV protease cleavage site of a HIV polyprotein; see H. G. Krausslich et al., Proc. Natl. Acad. Sci. USA, 86, 807 (1989). Details of this assay together with the results obtained for exemplified compounds of formula 1 are described in the examples hereinafter.
Recombinant HIV Protease HPLC Assay:
Enzyme: HIV protease was expressed in E. coli {construct pBRT1 prt^+, see W. G. Farmerie et al., Science, 236, 305 (1987)}, according to the following protocol:
E. coli cells containing the pBRT1 prt^+ plasmid were used to inoculate a seed culture media composed of Luria-Bertani Broth containing 100 μg/mL of ampicillin. Flasks were incubated at 37° under agitation for 17 h. Production flasks containing sterile M9 broth, supplemented with 100 μg/mL of ampicillin, were inoculated at a level of 1% (v/v) using the seed culture described above. Total volume in each production flask was 500 mL in a 2 L Erlenmeyer flask. Flasks were incubated at 37° under agitation until a cell concentration corresponding to an optical density ([…]) of 0.6 was reached (no dilution). This time span was routinely 3-4 h. Flasks were then supplemented with 5 mM isopropylthiogalactoside (IPTG, Research Organics, Cleveland, Ohio, USA) and incubation was continued until the cell concentration reached an optical density of 0.2 at 16-fold dilution. Flasks were then supplemented with 1 mM phenylmethylsulfonyl fluoride (PMSF) and rapidly chilled to 4°. The bacterial cells were recovered by centrifugation at 4°. The wet pellet was stored at -70°.
All steps below were performed at 4° unless otherwise indicated. Thawed cells were mixed with buffer A {50 mM tris(hydroxymethyl)[…] HCl (Tris-HCl, pH 7.4); 0.6 mM ethylenediaminetetraacetic acid (EDTA); 0.375M NaCl, 0.2% Nonidet P-40® (BDH Chemicals Ltd., Poole, UK); 1 mM PMSF}, at a ratio of one part cells to nine parts buffer A. Diatomaceous earth (Celite 545®, John Manville, Lompoc, Calif. USA) was added at a ratio of two parts to one part of wet cell weight. The resulting slurry was homogenized at high speed (ca. 20,000 rpm) on a Waring® industrial blender for 8×15 sec. pulses. Cell debris/Celite® was collected by centrifugation and the resulting pellet was extracted with 4.5 parts of buffer A to one part wet solids using the homogenization procedure described above. Supernatants from both homogenization steps were combined and soluble protein was precipitated by the addition of solid (NH4)2 SO4 to yield a final concentration of 75% saturation. This mixture was agitated for 60 min and the precipitate was recovered by centrifugation. The resulting pellet was suspended in buffer B {50 mM Tris-HCl, pH 8; 30 mM NaCl; 1 mM DL-dithiothreitol (DTT); 1 mM EDTA; 1 mM PMSF; 10% glycerol}, and dialyzed for 18 h against the same buffer.
An aliquot of the dialyzed extract containing 150 mg of the protein was loaded onto a Sephadex A25® anion exchange column (Pharmacia, Uppsala, Sweden) with bed dimensions of 70 cm length and 2.5 cm diameter. The sample was eluted isocratically with buffer B at a linear flow rate of 10 cm/h. Fractions containing HIV protease activity (see below for assay description) were combined, and soluble protein was precipitated by the addition of saturated aqueous (NH4)2 SO4 to yield a total (NH4)2 SO4 concentration of 85% saturation. Precipitated protein was removed by centrifugation and the resulting pellet was dissolved in buffer C {50 mM 2-(4-morpholino)ethanesulfonic acid (MES), pH 5.5; 150 mM NaCl; 1 mM DTT; 1 mM EDTA; 10% glycerol}. This preparation was dialyzed for 18 h against buffer C, and then frozen at -70°. All crude extracts were purified by chromatography in aliquots containing 150 mg of protein in the same manner as described above. […]

[1] = tested on: HIV (H9/HTLV-IIIB) in C8166 cells; test: plaque assay: inhibition of syncytia formation in HIV-infected C8166 cells; type: cell-based; conditions: 72 h, 50% inhibition of syncytia formation
From the text: Typical of such procedures are those described by S. Harada and N. Yamamoto, Jpn. J. Cancer Res. (Gann), 76, 432 (1985), and S. Harada et al., Science, 229, 563 (1985). An assay based on the latter procedures is described in the examples hereinafter.
The following protocol, used for screening antiviral effects of the compounds of formula 1, is adapted from a plaque assay utilizing HTLV-I transformed cells, previously reported by Harada et al., supra. HTLV-I transformed cells are used because of the rapidity with which HIV will replicate in the cells.
1. The test compound is dissolved in dimethylsulfoxide to a concentration of 5 mg/mL. The resultant solution can be stored at 4° until use.
2. The resultant solution is diluted in RPMI 1640 (Gibco Laboratories, St. Lawrence, Mass., USA) to four times (4×) the final concentration which is to be tested. Once diluted in RPMI 1640, the solution is used in the cell culture assay within 4 h.
3. The 4× solution (50 μL) is added to triplicate wells of a 96 well flat bottomed microtiter plate. RPMI (50 μL) also is added to control wells.
4. C8166 cells (5×10^4) in 50 μL of HEPES-buffered RPMI 1640 (pH=7.2), 10% heat inactivated fetal calf serum (FCS), […] gentamicin (complete media) are added to all wells.
5. Fifty times TCID50 of H9/HTLV-IIIB stock (stored in liquid nitrogen as cell culture supernatant in 50% FCS) in 100 μL of complete media is added to all wells. Infectious titer of virus stocks are as previously determined by end point dilution on C8166 cells. Titer of stocks are stable for 6-12 months when stored at -193°.
6. Microtiter plates are then placed on level shelves of a 37°, 5% CO2 humidified incubator for 72 h.
7. Plates are then removed and centers of syncytia are counted in each well by low power phase contrast light microscopy. […] Control wells should have between 25 and 75 centers of syncytia per well.
8. Percent inhibition of syncytia formation is calculated by the formula: [formula]
The concentration of the test compound which causes a 50% inhibition of syncytia formation, i.e. the EC50, is determined by using the technique of serial dilution of the working solution at step 3 and by using non-linear regression analysis (SAS® program) to graphically plot the observed percent inhibition of syncytia formation against the various concentrations of the test compound.

[2] = Human immunodeficiency virus 1, IIIB, Table VI
[3] = Human immunodeficiency virus 1, IIIB, Table V
[4] = Human immunodeficiency virus 1, IIIB, Table VII
[5] = Human immunodeficiency virus 1, IIIB, Table IV

IC50 (HIV protease; Table V) [nM]	EC50 [1, 3] [nM]	IC50 (HIV protease; Table IV) [nM]	EC50 [1, 5] [nM]	SMILES	other results
3.4	14			CC(C)[C@H](NC(=O)c1ccc2ccccc2n1)C(=O)N[C@@H](Cc1ccccc1)[C@H](O)CN1CC[C@@H](Oc2ccccc2)C[C@H]1C(=O)NC(C)(C)C [Table V, entry 7, N-tert-butyl-1-{2(S)(R)-hydroxy-4-phenyl-3(S)-{{N-(2-quinolylinylcarbonyl)valyl}amino}butyl}-4(R)-phenoxypiperidine-2-carboxamide]	
		3.1	90	CC(C)[C@H](NC(=O)OCc1ccccc1)C(=O)N[C@@H](Cc1ccccc1)[C@H](O)CN1CC[C@@H](c2ccccc2)C[C@H]1C(=O)NC(C)(C)C [Table IV, entry 10, N-tert-butyl-1-{3(S)-{{N-(benzyloxycarbonyl)valyl}amino}-2(R)-hydroxy-4-phenylbutyl}-4(R)-phenylpiperidine-2(S)-carboxamide]	
		2.7	150	CC(C)[C@H](NC(=O)OCc1ccccc1)C(=O)N[C@@H](Cc1ccccc1)[C@H](O)CN1CC[C@@H](Oc2ccccc2)C[C@H]1C(=O)NC(C)(C)C [Table IV, entry 16]	
		3.9	13	CC(C)[C@H](NC(=O)OCc1ccccc1)C(=O)N[C@@H](Cc1ccccc1)[C@H](O)CN1CC[C@@H](Sc2ccccc2)C[C@H]1C(=O)NC(C)(C)C [Table IV, entry 8]	
		2.3	40	CC(C)[C@H](NC(=O)OCc1ccccc1)C(=O)N[C@@H](Cc1ccccc1)[C@H](O)CN1CC[C@@H](S(=O)(=O)c2ccccc2)C[C@H]1C(=O)NC(C)(C)C [Table IV, entry 14]	

Second part, the molecule before the results:

SMILES	IC50 (HIV protease; Table V) [nM]	EC50 [1, 3] [nM]	IC50 (HIV protease; Table IV) [nM]	EC50 [1, 5] [nM]	other results
CC(C)(C)NC(=O)[C@@H]1C[C@H](Sc2ccccc2)CCN1C[C@@H](O)[C@H](Cc1ccccc1)NC(=O)[C@@H](NC(=O)c1ccc2ccccc2n1)C(C)(C)C [Table VI, entry 1, N-tert-butyl-1-{2(R)-hydroxy-4-phenyl-3(S)-{{N-(2-quinolylinylcarbonyl)tert-butylglycyl}amino}butyl}-4(R)-(phenylthio)piperidine-2(S)-carboxamide]					IC50 (HIV protease; Table VI): 3 nM; EC50 [1, 2]: 12 nM
Cc1ccccc1OCC(=O)N[C@@H](Cc1ccccc1)[C@H](O)CN1CC[C@@H](Sc2ccncc2)C[C@H]1C(=O)NC(C)(C)C [Table VII, entry 5, N-tert-butyl-1-{3(S)-{{(2-methylphenoxy)acetyl}amino}-2(R)-hydroxy-4-phenylbutyl}-4(R)-(4-pyridinylthio)piperidine-2(S)-carboxamide]					IC50 (HIV protease; Table VII): 6.2 nM; EC50 [1, 4]: 140 nM
Cc1cc(C)nc(S[C@@H]2CCN(C[C@@H](O)[C@H](Cc3ccccc3)NC(=O)[C@@H](NC(=O)c3ccc4ccccc4n3)C(C)C)[C@H](C(=O)NC(C)(C)C)C2)n1 [Table V, entry 4, N-tert-butyl-1-{2(R)-hydroxy-4-phenyl-3(S)-{{N-(2-quinolylinylcarbonyl)valyl}amino}butyl}-4(R)-{(4,6-dimethyl-2-pyrimidinyl)thio}piperidine-2-carboxamide]	2.7	8			
CC(C)[C@H](NC(=O)c1ccc2ccccc2n1)C(=O)N[C@@H](Cc1ccccc1)[C@H](O)CN1CC[C@@H](SCc2cccnc2)C[C@H]1C(=O)NC(C)(C)C [Table V, entry 8, N-tert-butyl-1-{2(S)(R)-hydroxy-4-phenyl-3(S)-{{N-(2-quinolylinylcarbonyl)valyl}amino}butyl}-4(R)-{(3-pyridinylmethyl)thio}piperidine-2-carboxamide]	2.2	3			
CC(C)[C@H](NC(=O)c1ccc2ccccc2n1)C(=O)N[C@@H](Cc1ccccc1)C(O)CN1CC[C@@H](S(=O)(=O)c2ccccc2)CC1C(=O)NC(C)(C)C (stereo partly drawn) [Table V, entry 14, N-tert-butyl-1-{2(S)(R)-hydroxy-4-phenyl-3(S)-{{N-(2-quinolylinylcarbonyl)valyl}amino}butyl}-4(R)-(phenylsulfonyl)piperidine-2-carboxamide]	2.9				EC50 ([1]; Table V): 23 nM
Cc1cc(C)nc(S[C@@H]2CCN(C[C@@H](O)[C@H](Cc3ccccc3)NC(=O)[C@H](CC(N)=O)NC(=O)c3ccc4ccccc4n3)[C@H](C(=O)NC(C)(C)C)C2)n1 [Table VI, entry 2, N-tert-butyl-1-{2(R)-hydroxy-4-phenyl-3(S)-{{N-(2-quinolylinylcarbonyl)asparaginyl}amino}butyl}-4(R)-{(4,6-dimethyl-2-pyrimidinyl)}thiopiperidine-2(S)-carboxamide]					IC50 (HIV protease; Table VI): 2.2 nM; EC50 [1, 2]: 42 nM
Cc1cccc(C)c1OCC(=O)N[C@@H](Cc1ccccc1)[C@H](O)CN1CC[C@@H](SCc2cccnc2)C[C@H]1C(=O)NC(C)(C)C [Table VII, entry 1, N-tert-Butyl-1-{3(S)-{{(2,6-dimethylphenoxy)acetyl}amino}-2(R)-hydroxy-4-phenylbutyl}-4(R)-{(3-pyridinylmethyl)thio}piperidine-2(S)-carboxamide]					IC50 (HIV protease; Table VII): 2.7 nM; EC50 [1, 4]: 35 nM
CC(C)[C@H](NC(=O)c1ccc2ccccc2n1)C(=O)N[C@@H](Cc1ccccc1)[C@H](O)CN1CC[C@@H](S(=O)(=O)c2ccncc2)C[C@H]1C(=O)NC(C)(C)C [Table V, entry 21, N-tert-butyl-1-{2(R)-hydroxy-4-phenyl-3(S)-{{N-(2-quinolylinylcarbonyl)valyl}amino}butyl}-4(R)-(4-pyridinylsulfonyl)piperidine-2(S)-carboxamide]	1.7	25			
